Experimental findings from PMC6271590, “Phenoxyacetohydrazide Schiff Bases: β-Glucuronidase Inhibitors” (Molecules, 2014) are described below.

The target in the experiment is T1, β-Glucuronidase (E.C. 3.2.1.31 from bovine liver) (Bos taurus, UniProt A3KMY8).
T1 construct: β-Glucuronidase (E.C. 3.2.1.31 from bovine liver, G-0251); purchased Sigma Chemical Co. (St. Louis, MO, USA) G-0251; host or cells: bovine liver (tissue-derived preparation)
T1 sequence (A3KMY8 1-652): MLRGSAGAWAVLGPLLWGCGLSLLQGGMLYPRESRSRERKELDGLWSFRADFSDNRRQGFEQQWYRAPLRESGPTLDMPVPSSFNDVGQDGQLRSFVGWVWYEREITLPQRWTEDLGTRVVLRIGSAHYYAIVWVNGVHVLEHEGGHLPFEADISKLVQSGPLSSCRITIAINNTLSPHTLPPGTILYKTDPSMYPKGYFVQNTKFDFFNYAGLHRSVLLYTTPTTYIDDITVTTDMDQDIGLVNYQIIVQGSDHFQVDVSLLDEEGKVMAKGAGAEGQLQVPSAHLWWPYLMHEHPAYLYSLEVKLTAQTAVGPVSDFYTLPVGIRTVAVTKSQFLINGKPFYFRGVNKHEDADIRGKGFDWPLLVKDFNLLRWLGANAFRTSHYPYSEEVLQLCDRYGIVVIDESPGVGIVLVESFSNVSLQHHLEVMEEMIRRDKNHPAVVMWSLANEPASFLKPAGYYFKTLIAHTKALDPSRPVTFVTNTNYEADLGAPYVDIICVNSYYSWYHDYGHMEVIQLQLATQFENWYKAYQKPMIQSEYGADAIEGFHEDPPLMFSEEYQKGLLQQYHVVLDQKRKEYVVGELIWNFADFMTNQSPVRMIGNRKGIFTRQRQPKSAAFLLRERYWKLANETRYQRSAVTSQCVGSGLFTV
Nature of the experiment: In vitro β-glucuronidase inhibition assay (p-nitrophenyl-β-D-glucuronide, absorbance at 405 nm). It is filed as biochemical. Conditions: for β-glucuronidase inhibitory activity in words: qualitative statement; for IC50: bovine liver enzyme, substrate p-nitrophenyl-β-D-glucuronide, 37 °C, 30 min, triplicate, ± SEM, NA = Not active. As to the method: Synthetic acyl hydrazides Schiff bases 1–28 were screened for their in vitro potential as β-glucoronidase inhibitors. The in vitro β-glucornidase inhibitory potential was evaluated by using the literature protocol.
β-Glucuronidase (E.C. 3.2.1.31 from bovine liver, G-0251) and p-nitrophenyl-β-D-glucuronide (N-1627) were purchased From Sigma Chemical Co. (St. Louis, MO, USA). Anhydrous Na2CO3 and all other reagents of standard grade were obtained from E. Merck. The anhydrous EtOH and CHCl3 used in the experiments were dried employing the standard methods. All other solvents and reagents like the benzoyl chloride were of standard grade.
β-D-Glucuronidase inhibition was determined by measuring the absorbance of the p-nitrophenol which is produce from the substrate at 405 nm. The total reaction volume was 250 µL. The reaction mixture contains 5 µL of test compound solution, 185 µL of 0.1 M acetate buffer, and 10 µL of enzyme, and it was incubated at 37 °C for 30 min. The plates were read on a multiplate reader at 405 nm after the addition of 50 µL of 0.4 mM p-nitrophenyl-β-D-glucuronide. All assays were performed in triplicate.

Values joined by “and” are separate entries in the source; they are usually repeats but may differ in a detail not shown here. Equal entries are not always repeated.

As to `Cc1cc(Cl)ccc1OCC(=O)NN=Cc1c(Cl)cccc1Cl` [Compound 10, 2-(4-Chloro-2-methylphenoxy)-N'-[(2,6-dichlorophenyl)methylidene]acetohydrazide], the “β-glucuronidase inhibitory activity in words” value was “completely inactive”.

On to `Cc1cc(Cl)ccc1OCC(=O)NN=Cc1ccc(O)cc1` [Compound 20, 2-(4-Chloro-2-methylphenoxy)-N'-[(4-hydroxyphenyl)methylidene]acetohydrazide], for which the “β-glucuronidase inhibitory activity in words” value is “completely inactive”.

For `CC(=NNC(=O)COc1ccc(Cl)cc1C)c1c(O)cc(O)cc1O` [Compound 19, 2-(4-Chloro-2-methylphenoxy)-N'-[1-(2,4,6-trihydroxyphenyl)ethylidene]acetohydrazide], the “β-glucuronidase inhibitory activity in words” value was “completely inactive”.

By IC50 is commonly meant the concentration needed to halve the response being measured. On to `Cc1cc(Cl)ccc1OCC(=O)NN=Cc1ccccc1[N+](=O)[O-]` [Compound 5, 2-(4-Chloro-2-methylphenoxy)-N'-[(2-nitrophenyl)methylidene]acetohydrazide], for which the half-inhibitory concentration (IC50) was 9.47 ± 0.16 µM and the “β-glucuronidase inhibitory activity in words” value is “excellent activity”.

For the compound `Cc1cc(Cl)ccc1OCC(=O)NN=Cc1cccc(O)c1O` [Compound 15, 2-(4-Chloro-2-methylphenoxy)-N'-[-(2,3-dihydroxyphenyl)methylidene]acetohydrazide], it took 12 ± 0.16 µM to reach half-maximal inhibition (IC50) and the “β-glucuronidase inhibitory activity in words” value is “excellent activity”.

Consider `Cc1cc(Cl)ccc1OCC(=O)NN=Cc1cccc(O)c1` [Compound 18, 2-(4-Chloro-2-methylphenoxy)-N'-[(3-hydroxyphenyl)methylidene]acetohydrazide], for which the “β-glucuronidase inhibitory activity in words” value was “completely inactive”.

For the compound `Cc1cc(Cl)ccc1OCC(=O)NN=Cc1ccc(O)c(O)c1` [Compound 16, 2-(4-Chloro-2-methylphenoxy)-N'-[-(3,4-dihydroxyphenyl)methylidene]acetohydrazide], the “β-glucuronidase inhibitory activity in words” value was “completely inactive”.

With `Cc1cc(Cl)ccc1OCC(=O)NN=Cc1ccc2ccccc2c1` [Compound 22, 2-(4-Chloro-2-methylphenoxy)-N'-[-2-naphthylmethylidene]acetohydrazide], the 50% inhibitory concentration (IC50) was determined as 22 ± 0.14 µM and the “β-glucuronidase inhibitory activity in words” value was “excellent activity”.

Turning to `CC(=NNC(=O)COc1ccc(Cl)cc1C)c1ccc(O)cc1` [Compound 17, 2-(4-Chloro-2-methylphenoxy)-N'-[1-(4-hydroxyphenyl)ethylidene]acetohydrazide], the “β-glucuronidase inhibitory activity in words” value is “completely inactive”.

Take `Cc1cc(Cl)ccc1OCC(=O)NN=Cc1ccccc1F` [Compound 11, 2-(4-Chloro-2-methylphenoxy)-N'-[-(2-fluorophenyl)methylidene]acetohydrazide]: the IC50 is 19 µM and 19.6 µM; the “β-glucuronidase inhibitory activity in words” value is “excellent activity”.

Consider `Cc1cc(Cl)ccc1OCC(=O)NN=Cc1cccc([N+](=O)[O-])c1` [Compound 6, 2-(4-Chloro-2-methylphenoxy)-N'-[(3-nitrophenyl)methylidene]acetohydrazide], for which the “β-glucuronidase inhibitory activity in words” value is given as “inactivity”.

As to `Cc1cc(Cl)ccc1OCC(=O)NN=Cc1ccsc1` [Compound 12, 2-(4-Chloro-2-methylphenoxy)-N'-[3-thienylmethylidene]acetohydrazide], the IC50 stood at 30.7 ± 1.49 µM and the “β-glucuronidase inhibitory activity in words” value is given as “excellent activity”.

Regarding `Cc1cc(Cl)ccc1OCC(=O)NN=Cc1ccc(Cl)cc1` [Compound 7, 2-(4-Chloro-2-methylphenoxy)-N'-[-(4-chlorophenyl)methylidene]acetohydrazide], the IC50 was found to be 14.7 ± 0.19 µM and the “β-glucuronidase inhibitory activity in words” value is reported as “excellent activity”.

`Cc1ccc(C=NNC(=O)COc2ccc(Cl)cc2C)o1` [Compound 14, 2-(4-Chloro-2-methylphenoxy)-N'-[-(5-methyl-2-furyl)methylidene]acetohydrazide]: the “β-glucuronidase inhibitory activity in words” value was “completely inactive”.

Regarding `COc1ccc(C=CC=NNC(=O)COc2ccc(Cl)cc2C)cc1` [Compound 2], the “β-glucuronidase inhibitory activity in words” value is “inactive”.

Turning to `Cc1cc(Cl)ccc1OCC(=O)NN=Cc1ccc(Cl)c(Cl)c1` [Compound 9, 2-(4-Chloro-2-methylphenoxy)-N'-[(3,4-dichlorophenyl)methylidene]acetohydrazide], the “β-glucuronidase inhibitory activity in words” value is “completely inactive”.

Regarding `COc1ccccc1C=CC=NNC(=O)COc1ccc(Cl)cc1C` [Compound 1], half-maximal inhibition (IC50) was put at 9.2 ± 0.32 µM and the “β-glucuronidase inhibitory activity in words” value is “excellent activity”. For the same compound, the “activity relative to the standard D-saccharic acid-1,4-lactone” value (fold better than standard by IC50) is listed as “fivefold better than the standard”.

On to `Cc1cc(Cl)ccc1OCC(=O)NN=Cc1cccc2ccccc12` [Compound 21, 2-(4-Chloro-2-methylphenoxy)-N'-[-1-naphthylmethylidene]acetohydrazide], for which the IC50 was 13.7 ± 0.4 µM and the “β-glucuronidase inhibitory activity in words” value is given as “excellent activity”.

With `Cc1cc(Cl)ccc1OCC(=O)NN=Cc1ccco1` [Compound 13, 2-(4-Chloro-2-methylphenoxy)-N'-[-2-furylmethylidene]acetohydrazide], the “β-glucuronidase inhibitory activity in words” value was “completely inactive”.
